How the values were obtained:
Assay type in all cases: cell-based, mouse
[1] = test system: Neuro2a transfected with aryl hydrocarbon receptor-expressing nucleic acid pcDNA4-rAhR; assay: Neurite outgrowth (cell morphology) of cell strains transfected with pcDNA4-rAhR; settings: 10 nM, DF1:1 medium, 1 to 3 weeks; two selected AhR-transfected Neuro2a strains (FIG. 2)
Experimental: (3) Cells in which neurites outgrow this observed by adding ligand of the aryl hydrocarbon receptor, are selected from the cell strains obtained in (c). Cells into which the receptor-expressing nucleic acid is transfected are cultured in a conventional culture medium such as DF1:1 medium containing 10% fetal bovine serum with or without adding ligand of the aryl hydrocarbon receptor for 1 to 3 weeks. And morphological changes are compared between the two types of the cells described above. The number of the neurite from the cell, the length of the neurite, and the number of the cells in which the neurite is outgrown are compared when the morphology changes of the cell strain are used as indications. It is more preferable that comparison of increase of a proportion of a number of cells with neurite having a twofold length of a diameter of the each cells, to the total cells which are in contacted with a ligand of aryl hydrocarbon receptor. The cells in which the neurite is outgrown by adding ligand of the aryl hydrocarbon receptor are selected, by comparing the cells in which the receptor-expressing nucleic acid is transfected by adding the ligand of the aryl hydrocarbon receptor with the cells in which the receptor-expressing nucleic acid is transfected without adding the ligand of the aryl hydrocarbon receptor. […]

[2] = test system: aryl hydrocarbon receptor; assay: CYP1A1 gene expression by reverse transcription PCR in selected cell strains; settings: 30 nM, 24 hours, with vs without; both selected cell strains
Text: (2) Cells functionally expressed the aryl hydrocarbon receptor protein are selected from the cells obtained in (c). A gene known to be able to induce expression of the gene through activation of the aryl hydrocarbon receptor is used as a marker as an indication of the selection. Examples of the gene include genes for CYP1A1, UGT glycosyltransferase 1 family, polypeptide A6 (UGT1A6) or glutathione-S-transferase (GST). The selection procedure includes, for example, culturing the cells to be selected in a conventional culture medium such as DF1:1 medium containing 10% of fetal bovine serum for 1 to 5 days; culturing the cells in a conventional culture medium such as DF1:1 medium containing 10% of fetal bovine serum for 1 week by adding a ligand of aryl hydrocarbon receptor; and extracting RNAs from the cells to detect the expression of the marker gene by a known RNA detection method such as northern hybridization and reverse transcription PCR. Alternatively, the protein translated from the marker gene is detected by a known detection method such as western blotting. The cells confirmed to induce the expression of the marker gene by this confirmation are selected.
After cultivating these cell strains in DF1:1 suppremented with or without 30 nM of 2,3,7,8-TCDD for 24 hours, total RNAs were extracted from the cells. An RNeasy kit was used for extraction of total RNA. […]

Neuro2a = assay: CYP1A1 gene expression by reverse transcription PCR in parent Neuro2a; settings: 30 nM, 24 hours; parent Neuro2a (no AhR gene detected)
Experimental: After cultivating these cell strains in DF1:1 suppremented with or without 30 nM of 2,3,7,8-TCDD for 24 hours, total RNAs were extracted from the cells. An RNeasy kit was used for extraction of total RNA. The extracted RNA was reverse-transcripted using an oligo(dT) primer. Subsequently, expression of CYP1A1 gene was confirmed by 25 cycles of PCR comprising 1 cycle with denaturation of 94° C./30 second, annealing of 55° C./30 seconds and extension of 72° C./30 seconds. CYP1A1 gene is one of genes, of which expression thereof is induced by binding of the aryl hydrocarbon receptor activated by binding of a ligand to XRE (xenobiotic responsive element) on DNAs. A forward primer 5′-CCCACAgCACCACAAgAgATA (SEQ ID NO: 5) and a reverse primer 5′-AAgTAggAggCACAATgTC (SEQ ID NO: 6) were used as primers for PCR. As a result, expression of CYP1A1 gene was increased by adding 2,3,7,8-TCDD in both of two selected cell strains. While the same experiment was performed with respect to Neuro2a, no increase of the amount of expression of CYP1A1 gene was observed.

[3] = test system: TH gene, Cdc42 gene and tau gene; assay: Marker gene expression (TH, Cdc42, tau) by reverse transcription PCR in selected cell strains; settings: selected two cell strains cultured with vs without 2,3,7,8-TCDD (FIG. 3)
Experimental: Total RNAs were extracted with an RNeasy kit after culturing the selected two cell strains in DF1:1 medium supplemented with 2,3,7,8-TCDD, and cDNA was synthesized by a reverse transcription reaction. Subsequently, using cDNA synthesized above as a template and ExTaq (manufactured by Takara Bio Inc.), expression of the TH gene was confirmed by 25 cycles of PCR comprising one cycle with denaturation of 94° C./30 second, annealing of 60° C./30 seconds and extension of 72° C./30 seconds. Also, expression of the Cdc42 gene and tau gene was confirmed by 25 cycles of PCR comprising one cycle with denaturation of 94° C./30 second, annealing of 58° C./30 seconds and extension of 72° C./30 seconds. A forward primer 5′-CCACggTgTACTggTTCACT (SEQ ID NO: 7) and a reverse primer 5′-ggCATAgTTCCTgAgCTTgT (SEQ ID NO: 8) were used as primers for the TH gene; a forward primer 5′-gATACTgCAgggCAAgAgg (SEQ ID NO: 9) and a reverse primer 5′-CAggCACCCACTTTTCTTTC (SEQ ID NO: 10) were used as primers for the Cdc42 gene; and a forward primer 5′-TCCggAgAACgAAgCggCTACAgC (SEQ ID NO: 11) and a reverse primer 5′-TgCTgAggTgCCgTggAgATgTgT (SEQ ID NO: 12) were used as primers for the tau gene. As a result, the amounts of expression of the TH gene, Cdc42 gene and tau gene were increased in any of the two selected cell strains cultured with 2,3,7,8-TCDD as compared with the cell strains cultured without 2,3,7,8-TCDD (FIG. 3).

[4] = test system: tau protein and TH protein; assay: Marker protein expression (tau, TH) by western blotting in selected cell strains; settings: 10 nM, three weeks, with vs without; selected two cell strains (FIG. 4)
Experimental: After the selected two cell strains were cultured in DF1:1 medium supplemented with 10 nM of 2,3,7,8-TCDD for three weeks, the amounts of expression of the tau protein and TH protein were confirmed by extracting the proteins and by conducting western blotting with a tau protein antibody and TH protein antibody. The amounts of expression of the tau protein and TH protein were increased in any of the selected two cell strains as compared with neurotoxicity responsive cells cultured without adding 2,3,7,8-TCDD (FIG. 4).

## Clc1cc2c(cc1Cl)Oc1cc(Cl)c(Cl)cc1O2 [2,3,7,8-TCDD, 2,3,7,8-tetrachlorodibenzo-p-dioxin]
[1]
  neurite outgrowth (morphology of the cell): particularly high proportion of neurite outgrowth
[2]
  expression of CYP1A1 gene: increased
Neuro2a
  amount of expression of CYP1A1 gene: no increase
[3]
  amount of expression of the Cdc42 gene: increased
  amount of expression of the TH gene: increased
  amount of expression of the tau gene: increased
[4]
  amount of expression of the TH protein: increased
  amount of expression of the tau protein: increased

— patent US7662626B2, “Cells and methods for estimation of effects on neurological dysfunction” (Kabushiki Kaisha Toshiba, priority 2005, dated 2010)
